Laboratory results taken from US9512114B2, “Substituted aminopyrimidine compounds and methods of use” (Calitor Sciences, LLC, priority 2013, dated 2016).
Values belong to the compound of their own block, whether it stands above or below them.

Tests used:
[1] = test system: systemic lupus erythematosis model; conditions: Nature Medicine, 2005, 11, 933-935; cited from earlier work
[2] = test system: rheumatoid arthritis model; conditions: Nature Medicine, 2005, 11, 936-943; cited from earlier work
[3] = target: PI3K (p110β/p85α) (h) (Homo sapiens (Human), UniProt P42338); assay: PI3K (p110β/p85α) (h) non-radioactive HTRF kinase assay; format: biochemical; conditions: performed at Millipore UK Ltd
PI3K (p110β/p85α) (h), sequence (P42338 whole entry): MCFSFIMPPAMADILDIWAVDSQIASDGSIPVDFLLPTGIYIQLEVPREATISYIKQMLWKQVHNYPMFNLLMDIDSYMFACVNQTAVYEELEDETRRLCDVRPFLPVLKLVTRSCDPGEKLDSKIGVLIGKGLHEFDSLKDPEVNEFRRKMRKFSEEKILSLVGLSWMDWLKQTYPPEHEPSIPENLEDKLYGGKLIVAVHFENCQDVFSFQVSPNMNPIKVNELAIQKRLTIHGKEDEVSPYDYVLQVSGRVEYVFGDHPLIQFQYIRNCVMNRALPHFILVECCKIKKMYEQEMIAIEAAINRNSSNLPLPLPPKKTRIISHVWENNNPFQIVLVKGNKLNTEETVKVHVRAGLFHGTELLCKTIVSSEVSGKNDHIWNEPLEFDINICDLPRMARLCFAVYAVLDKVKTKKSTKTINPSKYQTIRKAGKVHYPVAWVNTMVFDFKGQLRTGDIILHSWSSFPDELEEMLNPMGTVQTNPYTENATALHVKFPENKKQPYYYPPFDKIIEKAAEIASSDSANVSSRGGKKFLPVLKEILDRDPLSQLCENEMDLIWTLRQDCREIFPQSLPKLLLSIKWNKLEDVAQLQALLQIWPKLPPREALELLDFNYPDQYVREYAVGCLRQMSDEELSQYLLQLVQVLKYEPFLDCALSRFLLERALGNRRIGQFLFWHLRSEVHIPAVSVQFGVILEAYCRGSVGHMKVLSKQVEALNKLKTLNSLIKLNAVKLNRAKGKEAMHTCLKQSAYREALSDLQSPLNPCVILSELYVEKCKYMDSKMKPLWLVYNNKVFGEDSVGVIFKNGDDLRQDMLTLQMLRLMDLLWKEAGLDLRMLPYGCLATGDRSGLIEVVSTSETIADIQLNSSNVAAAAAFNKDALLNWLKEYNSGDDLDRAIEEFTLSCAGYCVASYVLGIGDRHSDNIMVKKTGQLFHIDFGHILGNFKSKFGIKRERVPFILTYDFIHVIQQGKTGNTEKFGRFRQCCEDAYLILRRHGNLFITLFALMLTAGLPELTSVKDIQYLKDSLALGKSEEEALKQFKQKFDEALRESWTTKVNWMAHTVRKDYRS
PI3K (p110β/p85α) (h), sequence (P27986 whole entry partner): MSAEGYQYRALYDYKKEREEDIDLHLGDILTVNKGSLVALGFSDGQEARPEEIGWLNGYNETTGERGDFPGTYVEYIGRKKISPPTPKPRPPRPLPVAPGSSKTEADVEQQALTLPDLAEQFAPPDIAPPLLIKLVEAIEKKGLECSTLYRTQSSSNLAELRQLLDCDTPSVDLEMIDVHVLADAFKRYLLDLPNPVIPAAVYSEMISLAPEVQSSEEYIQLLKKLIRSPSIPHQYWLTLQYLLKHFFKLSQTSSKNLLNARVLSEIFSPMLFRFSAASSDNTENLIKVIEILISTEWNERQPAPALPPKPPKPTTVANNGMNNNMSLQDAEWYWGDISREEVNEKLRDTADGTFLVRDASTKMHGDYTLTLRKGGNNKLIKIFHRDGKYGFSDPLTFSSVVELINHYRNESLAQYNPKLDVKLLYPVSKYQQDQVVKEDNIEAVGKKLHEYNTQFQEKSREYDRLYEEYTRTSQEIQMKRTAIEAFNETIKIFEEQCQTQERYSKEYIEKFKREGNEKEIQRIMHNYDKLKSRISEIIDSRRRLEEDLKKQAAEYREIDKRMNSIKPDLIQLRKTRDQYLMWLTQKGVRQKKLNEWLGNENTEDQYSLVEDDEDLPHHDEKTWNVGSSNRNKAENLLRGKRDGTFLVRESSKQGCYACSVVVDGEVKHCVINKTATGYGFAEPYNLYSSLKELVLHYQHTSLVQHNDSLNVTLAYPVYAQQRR
Method: (§1) The above assay procedure can be used to determine the IC50 for inhibition and/or the inhibition constant, Ki.
PI3K (p110β/p85α) (h) [Non-Radioactive Assay]
(§2) PI3K (p1103/p85α) (h) is incubated in assay buffer containing 10 μM phosphatidylinositol-4, 5-bisphosphate and MgATP (concentration as required). The reaction is initiated by the addition of the MgATP mix. After incubation for 30 minutes at room temperature, the reaction is stopped by the addition of stop solution containing EDTA and biotinylated phosphatidylinositol-3,4,5-trisphosphate. Finally, detection buffer is added, which contains europium-labelled anti-GST monoclonal antibody, GST-tagged GRP1 PH domain and streptavidin-allophycocyanin. The plate is then read in timeresolved fluorescence mode and the homogenous time-resolved fluorescence (HTRF) signal is determined according to the formula HTRF=10000×(Em665 nm/Em620 nm).
(§3) The kinase assays described herein were performed at Millipore UK Ltd, Dundee Technology Park, Dundee DD2 1SW, UK.

[4] = target: PI3K (p110α/p85α) (h) (Homo sapiens (Human), UniProt P42336); assay: PI3K (p110α/p85α) (h) non-radioactive HTRF kinase assay; format: biochemical; conditions: performed at Millipore UK Ltd
PI3K (p110α/p85α) (h), sequence (P42336 whole entry): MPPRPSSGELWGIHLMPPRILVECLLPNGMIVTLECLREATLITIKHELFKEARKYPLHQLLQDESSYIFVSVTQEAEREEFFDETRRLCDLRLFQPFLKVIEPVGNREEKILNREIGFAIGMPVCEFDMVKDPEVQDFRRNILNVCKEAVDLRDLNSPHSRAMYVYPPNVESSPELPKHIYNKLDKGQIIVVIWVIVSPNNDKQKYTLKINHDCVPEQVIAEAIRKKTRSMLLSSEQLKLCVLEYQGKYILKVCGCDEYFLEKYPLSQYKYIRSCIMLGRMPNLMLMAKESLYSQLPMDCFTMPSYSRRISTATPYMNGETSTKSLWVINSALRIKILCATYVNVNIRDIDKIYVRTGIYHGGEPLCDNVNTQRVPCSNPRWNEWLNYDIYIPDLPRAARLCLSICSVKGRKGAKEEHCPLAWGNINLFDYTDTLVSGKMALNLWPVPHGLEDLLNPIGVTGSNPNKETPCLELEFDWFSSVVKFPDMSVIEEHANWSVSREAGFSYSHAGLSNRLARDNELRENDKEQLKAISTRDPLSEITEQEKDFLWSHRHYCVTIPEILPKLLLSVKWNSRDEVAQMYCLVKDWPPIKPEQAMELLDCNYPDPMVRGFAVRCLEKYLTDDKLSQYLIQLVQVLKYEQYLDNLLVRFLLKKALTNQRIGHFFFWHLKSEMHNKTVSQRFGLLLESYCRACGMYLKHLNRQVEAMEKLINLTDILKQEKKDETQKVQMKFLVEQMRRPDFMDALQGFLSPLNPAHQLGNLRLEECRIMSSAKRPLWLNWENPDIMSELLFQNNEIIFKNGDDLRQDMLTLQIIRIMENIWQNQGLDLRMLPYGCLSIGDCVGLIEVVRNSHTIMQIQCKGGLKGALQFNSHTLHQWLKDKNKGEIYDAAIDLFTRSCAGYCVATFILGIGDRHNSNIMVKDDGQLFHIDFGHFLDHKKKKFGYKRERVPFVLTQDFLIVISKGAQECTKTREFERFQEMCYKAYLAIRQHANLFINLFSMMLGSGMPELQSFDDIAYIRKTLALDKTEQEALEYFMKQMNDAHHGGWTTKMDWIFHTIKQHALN
PI3K (p110α/p85α) (h), sequence (P27986 whole entry partner): as the sequence (P27986 whole entry partner) above
Method: as §1
PI3K (p110α/p85α) (h) [Non-Radioactive Assay]
as §2, with “(p110α/p85α)” for “(p1103/p85α)”, “phosphatidylinositol 4,5-bisphosphate” for “phosphatidylinositol-4, 5-bisphosphate”, “ATP solution.” for “MgATP mix.”, “streptavidin allophycocyanin.” for “streptavidin-allophycocyanin.”
as §3

[5] = Compound stability in human liver microsomes; format: in vitro ADME; conditions: pH 7.4
How it was run: (§4)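 Human or rat liver microsomes (0.5 mg protein/mL) incubated with compound (5 μM) and NADPH (1.0 mM) in 100 mM potassium phosphate, pH 7.4, 0.05% DMSO, 37° C, sampled 0–60 min and quenched with cold acetonitrile. Remaining compound quantified by LC/MS/MS as % of time zero; CLint extrapolated.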

[6] = target: PI3K (p120γ) (h) (Homo sapiens (Human), UniProt P48736); assay: PI3K (p120γ) (h) non-radioactive HTRF kinase assay; format: biochemical; conditions: performed at Millipore UK Ltd
PI3K (p120γ) (h), sequence (P48736 whole entry): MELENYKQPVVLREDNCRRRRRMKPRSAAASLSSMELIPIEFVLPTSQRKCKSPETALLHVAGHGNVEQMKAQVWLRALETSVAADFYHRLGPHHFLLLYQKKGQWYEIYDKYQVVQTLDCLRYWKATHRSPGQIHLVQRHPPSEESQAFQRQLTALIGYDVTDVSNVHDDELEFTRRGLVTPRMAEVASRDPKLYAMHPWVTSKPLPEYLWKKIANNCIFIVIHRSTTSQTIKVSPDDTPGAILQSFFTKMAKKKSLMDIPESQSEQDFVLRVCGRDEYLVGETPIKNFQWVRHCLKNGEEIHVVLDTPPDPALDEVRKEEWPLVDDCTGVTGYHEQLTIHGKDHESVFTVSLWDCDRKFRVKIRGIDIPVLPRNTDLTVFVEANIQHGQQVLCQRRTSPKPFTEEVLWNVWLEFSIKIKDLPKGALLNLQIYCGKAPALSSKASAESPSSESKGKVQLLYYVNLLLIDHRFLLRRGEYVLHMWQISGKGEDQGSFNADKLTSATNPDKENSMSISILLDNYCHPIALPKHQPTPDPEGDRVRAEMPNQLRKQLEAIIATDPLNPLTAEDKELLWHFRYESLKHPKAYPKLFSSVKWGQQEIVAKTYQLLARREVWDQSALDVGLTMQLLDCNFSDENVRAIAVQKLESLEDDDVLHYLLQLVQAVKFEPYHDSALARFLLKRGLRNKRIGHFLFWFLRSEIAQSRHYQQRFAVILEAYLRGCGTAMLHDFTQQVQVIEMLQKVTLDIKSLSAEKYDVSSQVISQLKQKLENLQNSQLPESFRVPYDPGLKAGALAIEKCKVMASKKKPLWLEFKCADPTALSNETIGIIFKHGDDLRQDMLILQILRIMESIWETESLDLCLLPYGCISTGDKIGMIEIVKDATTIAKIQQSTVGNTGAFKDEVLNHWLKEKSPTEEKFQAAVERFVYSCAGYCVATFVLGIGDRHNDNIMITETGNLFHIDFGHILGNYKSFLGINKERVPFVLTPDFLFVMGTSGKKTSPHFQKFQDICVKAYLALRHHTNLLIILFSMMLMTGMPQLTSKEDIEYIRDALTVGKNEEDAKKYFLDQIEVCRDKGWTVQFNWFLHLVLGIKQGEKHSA
Method: as §1
PI3K (p120γ) (h) [Non-Radioactive Assay]
as §2, with “(p120γ)” for “(p1103/p85α)”
as §3

[7] = Compound stability in rat liver microsomes; format: in vitro ADME; conditions: pH 7.4
How it was run: as §4

[8] = target: PI3K (p110δ/p85α) (h) (Homo sapiens (Human), UniProt O00329); assay: PI3K (p110δ/p85α) (h) non-radioactive HTRF kinase assay; format: biochemical; conditions: performed at Millipore UK Ltd
PI3K (p110δ/p85α) (h), sequence (O00329 whole entry): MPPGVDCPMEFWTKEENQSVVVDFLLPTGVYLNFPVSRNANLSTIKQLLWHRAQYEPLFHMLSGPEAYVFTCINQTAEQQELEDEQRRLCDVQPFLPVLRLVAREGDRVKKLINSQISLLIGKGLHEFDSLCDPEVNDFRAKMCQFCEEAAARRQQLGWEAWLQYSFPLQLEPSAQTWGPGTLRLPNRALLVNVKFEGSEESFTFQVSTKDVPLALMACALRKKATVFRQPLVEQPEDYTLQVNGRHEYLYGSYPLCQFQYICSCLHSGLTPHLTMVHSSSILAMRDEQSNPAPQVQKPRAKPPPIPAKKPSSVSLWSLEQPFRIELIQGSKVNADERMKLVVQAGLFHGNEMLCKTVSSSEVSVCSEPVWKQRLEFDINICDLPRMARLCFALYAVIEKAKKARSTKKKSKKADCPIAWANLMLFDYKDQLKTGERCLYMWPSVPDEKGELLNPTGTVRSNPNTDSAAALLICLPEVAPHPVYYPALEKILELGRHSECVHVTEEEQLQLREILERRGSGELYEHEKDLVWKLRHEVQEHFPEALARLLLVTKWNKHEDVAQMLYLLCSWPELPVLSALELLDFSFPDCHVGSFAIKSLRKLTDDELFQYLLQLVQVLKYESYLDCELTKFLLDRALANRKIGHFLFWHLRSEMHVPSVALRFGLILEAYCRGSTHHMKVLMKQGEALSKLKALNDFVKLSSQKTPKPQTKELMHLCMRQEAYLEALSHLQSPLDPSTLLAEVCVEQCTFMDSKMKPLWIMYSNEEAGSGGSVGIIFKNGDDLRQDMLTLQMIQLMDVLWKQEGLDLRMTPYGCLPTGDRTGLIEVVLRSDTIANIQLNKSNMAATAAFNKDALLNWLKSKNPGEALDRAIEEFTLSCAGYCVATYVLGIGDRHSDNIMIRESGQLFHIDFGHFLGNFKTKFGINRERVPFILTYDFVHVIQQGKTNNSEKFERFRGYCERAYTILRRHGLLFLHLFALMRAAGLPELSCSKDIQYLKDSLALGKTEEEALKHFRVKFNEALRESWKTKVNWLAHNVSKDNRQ
PI3K (p110δ/p85α) (h), sequence (P27986 whole entry partner): as the sequence (P27986 whole entry partner) above
Method: as §1
PI3K (p110δ/p85α) (h) [Non-Radioactive Assay]
as §2, with “(p110δ/p85α)” for “(p1103/p85α)”
as §3

[9] = test system: ovalbumin-induced airway inflammation; conditions: murine asthma model, FASEB, 2006, 20: 455-465; cited from earlier work
[10] = test system: PI3Kδ; conditions: Cell, 2006, 125, 733-747; cited from earlier work
[11] = test system: protein kinases; conditions: Cell, 2006, 125, 733-747; cited from earlier work

SMILES: O=C1NC(=O)/C(=C\c2ccc3nccnc3c2)S1 [AS 605240]
effect on onset of disease in model of systemic lupus erythematosis [1]: delay onset of disease | efficacy in mouse model of rheumatoid arthritis [2]: efficacious

IC50 [3]: 1170 nM | IC50 [4]: 225 nM | CLint scaled at 5 μM ([5]; liver microsomes, in vivo CLint extrapolated from human liver microsome incubation): 64.1 mL/min/kg | half-life at 5 μM ([5]; human liver microsomes 0.5 mg protein/mL, compound 5 μM, NADPH 1.0 mM, 37° C., read-out: Human T1/2): 27.1 min | IC50 [6]: 104 nM | CLint scaled at 5 μM ([7]; liver microsomes, in vivo CLint extrapolated from rat liver microsome incubation): 72.7 mL/min/kg | half-life at 5 μM ([7]; rat liver microsomes 0.5 mg protein/mL, compound 5 μM, NADPH 1.0 mM, 37° C., read-out: Rat T1/2): 34.2 min | IC50 [8]: 9 nM
SMILES: Cc1noc(-c2c(N)ncnc2N[C@@H](C)c2cc3cccc(-c4cnn(C)c4)c3c(=O)n2-c2ccccc2)n1 [Ex. 28, (S)-3-(1-((6-amino-5-(3-methyl-1,2,4-oxadiazol-5-yl)pyrimidin-4-yl)amino)ethyl)-8-(1-methyl-1H-pyrazol-4-yl)-2-phenylisoquinolin-1(2H)-one]

SMILES: Cc1ccccc1-n1c(Cn2cnc3c(N)ncnc32)nc2cccc(C)c2c1=O [IC87114]
effect on inflammation and disease [9]: significantly ameliorate inflammation and disease | inhibits PI3Kδ [10]: high nanomolar range (triple digit) | activity against any protein kinases tested [11]: no activity
